In patent publication US7358390B2, “Polymorphic forms of nateglinide” (Teva Pharmaceutical Industries Ltd., priority 2002, dated 2008):
Entries after “also recorded” stand apart in the source; their conditions may differ.

Experiments:
[1] = Thermal stability: transformation of crystalline forms on heating or drying, form checked by XRPD; assay type: physicochemical; conditions: for crystal form obtained upon drying/heating: heating under ambient or reduced pressure, generally about 40-80° C.
Protocol: The various crystalline forms are related to each other in that drying of one form may result in a transformation to another form, namely nateglinide Forms A, B, D, E, F, G, H, I, J, K, L, M, N, Q, S, T, V, Z, α, β, δ, γ, ε, θ and Ω. The drying is carried out by heating a sample under ambient or reduced pressure. Generally, a preferred temperature is from about 40° C. to about 80° C., more preferably under reduced pressure. […] The term “stable” as used herein refers to a polymorphic change of less than about 5% by weight, more preferably less than about 2%, particularly for Form δ.
(§1) X-Ray diffraction was performed on X-Ray powder diffractometer, Scintag®, variable goniometer, Cu-tube, solid state detector. Sample holder: A round standard aluminum sample holder with round zero background quartz plate.
(§2) The sample was put on the sample holder and immediately analyzed as is. • Scanning parameters: Range: 2-40 deg 2θ, Continuos Scan, Rate: 3 deg./min. DSC: • DSC821^e Mettler Toledo®, Sample weight: 3-5 mg, Heating rate: 10° C./min, Number of holes in the crucible: 3 TGA: • Mettler TG50®, Sample weight: 7-15 mg, Heating rate: 10° C./min FTIR: • Perkin-Elmer®, Spectrum One FTIR spectrometer, Range: 4000-400 cm−1, no. of scans: 16, resolution: 4.0 cm−1, DRIFT technique.
Nateglinide Form delta (10 grams), with about 3% heptane (wt/wt), was dried in a fluidized bed drier for 4 hours at 60° C. Residual heptane was 1578 ppm af. Ethyl acetate is under detection limit. Polymorphic form of the dry product is delta.
Sample of nateglinide form U (˜1 g) was introduced into a 6-gram vial and heated over 8.5 h in a 100° C. oil bath. The vial were extracted from the bath.
Sample of nateglinide form U (˜0.5 g) was heated to 120° C. for 1 h in an atmospheric pressure.
Sample of nateglinide form δ (˜0.5 g) was heated to 120° C. for 1 h in an atmospheric pressure.
The product of example 11 was dried at 50° C. in a vacuum oven overnight, and analyzed by XRD.
Nateglinide (40 grams) Form delta (1.5% heptane) was dried in a stirred reactor (7-10 rpm) under 60 mmHg vacuum and at 60° C. After 6 hours of drying, the residual solvent of the material was 613 ppm of heptane.

[2] = Storage of crystalline forms at room temperature, form checked by XRPD; assay type: physicochemical; conditions: for crystal form after storage at RT: room temperature and pressure, open bottle, 24 h (about a day)
Protocol: The various crystalline forms are also analyzed by Thermal Gravimetric Analysis (TGA). […] In contrast to the above listed forms, TGA profiles of forms L, P, U, α, δ and σ show no significant weight loss. These polymorphic forms of nateglinide are free of bound solvents, i.e., less than about 2% LOD. Table III lists the solvents used for the preparation for nateglinide solvated forms, as well as LOD values based on TGA analysis.
Storage at room temperature and pressure may also cause a transition of one form to another.
as §1, §2

[3] = second endotherm at 138.2° C. after grinding; cited from earlier work
[4] = Exposure of NTG Form H to solvent vapors; assay type: physicochemical; conditions: 4 d, room temperature
Protocol: Nateglinide (3.50 g) was added to a polypropylene can and weighed. The can was introduced into a bigger polypropylene container containing a solvent, and stored at room temperature. The can was removed from the container and weighed (Wfinal). The can content was divided into 2 portions. One portion was dried at a temperature of 55° C. and a pressure of 20-30 mmHg to constant weight (±0.01 g).

[5] = Stability at about 40° C. and about 75% relative humidity; assay type: physicochemical; conditions: about 40° C., about 75% relative humidity, at least about 3 months
Protocol: Crystalline Form δ is stable at a temperature of about 40° C. and a relative humidity of about 75% for at least about 3 months.

[6] = 120° C., 1 h, atmospheric pressure

**Q.** With `CC(C)[C@H]1CC[C@H](C(=O)N[C@H](Cc2ccccc2)C(=O)O)CC1` [Form ε, nateglinide] as the compound, how does the “crystal form obtained upon drying/heating” value [1] read?
**A.** Form H

**Q.** Which “crystal form after storage at RT” value [2] does the source give for `CC(C)[C@H]1CC[C@H](C(=O)N[C@H](Cc2ccccc2)C(=O)O)CC1` [Form Q, nateglinide] here?
**A.** converts to Form Y

**Q.** What about the “crystal form after storage at RT” value ([2]; listed as Q) of the same compound?
**A.** Form Y, which contains

**Q.** And the “crystal form obtained upon drying/heating” value [1]?
**A.** convert to Form B

**Q.** Which “crystal form obtained upon drying/heating” value [1] does the source give for `CC(C)[C@H]1CC[C@H](C(=O)N[C@H](Cc2ccccc2)C(=O)O)CC1` [Form V, nateglinide] here?
**A.** Form H

**Q.** For `CC(C)[C@H]1CC[C@H](C(=O)N[C@H](Cc2ccccc2)C(=O)O)CC1` [Form N, nateglinide], which “crystal form obtained upon drying/heating” value [1] is on record?
**A.** Form L

**Q.** With `CC(C)[C@H]1CC[C@H](C(=O)N[C@H](Cc2ccccc2)C(=O)O)CC1` [nitromethane solvates of Form Epsilon, nateglinide] as the compound, how does the “crystal form obtained upon drying/heating” value [1] read?
**A.** Forms H or P

**Q.** With `CC(C)[C@H]1CC[C@H](C(=O)N[C@H](Cc2ccccc2)C(=O)O)CC1` [Form F, nateglinide] as the compound, how does the “crystal form obtained upon drying/heating” value [1] read?
**A.** convert to Form B; also recorded: a mixture of Form B and G

**Q.** Which “stability during grinding (DSC)” value [3] does the source give for `CC(C)[C@H]1CC[C@H](C(=O)N[C@H](Cc2ccccc2)C(=O)O)CC1` [Form B, nateglinide] here?
**A.** unstable and susceptible to change

**Q.** Which “crystal form after storage at RT” value [2] does the source give for `CC(C)[C@H]1CC[C@H](C(=O)N[C@H](Cc2ccccc2)C(=O)O)CC1` [Form T, nateglinide] here?
**A.** converts to Form E

**Q.** And the “crystal form after storage at RT” value ([2]; listed as T)?
**A.** Form E

**Q.** What about the “crystal form obtained upon drying/heating” value [1] of the same compound?
**A.** convert to Form B; also recorded: a mixture of Form B and G

**Q.** With `CC(C)[C@H]1CC[C@H](C(=O)N[C@H](Cc2ccccc2)C(=O)O)CC1` [Form Z, nateglinide] as the compound, how does the “crystal form obtained upon drying/heating” value [1] read?
**A.** convert to Form B

**Q.** Which “crystal form after storage at RT” value [2] does the source give for `CC(C)[C@H]1CC[C@H](C(=O)N[C@H](Cc2ccccc2)C(=O)O)CC1` [Form I, nateglinide] here?
**A.** converts to Form L

**Q.** And the “crystal form after storage at RT” value ([2]; listed as I)?
**A.** Form L

**Q.** For `CC(C)[C@H]1CC[C@H](C(=O)N[C@H](Cc2ccccc2)C(=O)O)CC1` [Form β, nateglinide], which “crystal form obtained upon drying/heating” value [1] is on record?
**A.** convert to Form B

**Q.** Which “crystal form after drying (XRD)” value ([1]; 50° C., vacuum oven, overnight) does the source give for `CC(C)[C@H]1CC[C@H](C(=O)N[C@H](Cc2ccccc2)C(=O)O)CC1` [Form Ω, nateglinide] here?
**A.** mixture of Form omega and Form Z

**Q.** And the “crystal form obtained upon drying/heating” value [1]?
**A.** convert to Form B

**Q.** With `CC(C)[C@H]1CC[C@H](C(=O)N[C@H](Cc2ccccc2)C(=O)O)CC1` [Form A, nateglinide] as the compound, how does the “crystal form after storage at RT” value [2] read?
**A.** partially converts to Form B

**Q.** What about the “crystal form after storage at RT” value ([2]; listed as A) of the same compound?
**A.** conversion to Form B

**Q.** What about the “crystal form obtained upon drying/heating” value [1] of the same compound?
**A.** convert to Form B

**Q.** With `CC(C)[C@H]1CC[C@H](C(=O)N[C@H](Cc2ccccc2)C(=O)O)CC1` [Form E, nateglinide] as the compound, how does the “crystal form obtained upon drying/heating” value [1] read?
**A.** convert to Form B

**Q.** For `CC(C)[C@H]1CC[C@H](C(=O)N[C@H](Cc2ccccc2)C(=O)O)CC1` [Form U, nateglinide], which “crystal form after heating (XRPD)” value [1, 6] is on record?
**A.** Form U

**Q.** What about the “crystal form after heating (XRPD)” value ([1]; about 100° C. oil bath, 8.5 h) of the same compound?
**A.** does not undergo a transition

**Q.** And the “crystal form after heating (XRPD)” value ([1]; about 100° C. oil bath, 8.5 h, listed as form U)?
**A.** Form U

**Q.** For `CC(C)[C@H]1CC[C@H](C(=O)N[C@H](Cc2ccccc2)C(=O)O)CC1` [Form H, nateglinide], which “Form wet after exposure to solvent vapors” value ([4]; Acetone vapors) is on record?
**A.** stable

**Q.** What about the “Form wet after exposure to solvent vapors” value ([4]; Water vapors) of the same compound?
**A.** stable

**Q.** Which “crystal form obtained upon drying/heating” value [1] does the source give for `CC(C)[C@H]1CC[C@H](C(=O)N[C@H](Cc2ccccc2)C(=O)O)CC1` [Form C, nateglinide] here?
**A.** convert to Form B; also recorded: Form B or α

**Q.** For `CC(C)[C@H]1CC[C@H](C(=O)N[C@H](Cc2ccccc2)C(=O)O)CC1` [Form δ, nateglinide], which stability when heated ([1]; 60° C. overnight (at least about 8 hours)) is on record?
**A.** stable

**Q.** What about the “crystal form after heating (XRPD)” value [1, 6] of the same compound?
**A.** Form B

**Q.** What about the “crystal form after heating (XRPD)” value ([1]; 120° C., 1 h, atmospheric pressure, listed as form δ) of the same compound?
**A.** Form B

**Q.** What about the “polymorphic form after drying” value ([1]; fluidized bed drier, 4 hours, 60° C.) of the same compound?
**A.** delta

**Q.** And the “crystal form obtained upon drying/heating” value [1]?
**A.** convert to Form B

**Q.** What about the polymorph after drying ([1]; stirred reactor (7-10 rpm), 60 mmHg vacuum, 60° C., 6 hours) of the same compound?
**A.** remained delta form

**Q.** And the stability on storage [5]?
**A.** stable

**Q.** Which “crystal form obtained upon drying/heating” value [1] does the source give for `CC(C)[C@H]1CC[C@H](C(=O)N[C@H](Cc2ccccc2)C(=O)O)CC1` [Form θ, nateglinide] here?
**A.** convert to Form B

**Q.** With `CC(C)[C@H]1CC[C@H](C(=O)N[C@H](Cc2ccccc2)C(=O)O)CC1` [Form J, nateglinide] as the compound, how does the “XRD pattern after storage at RT” value ([2]; RT, overnight) read?
**A.** changed after storage at RT

**Q.** And the “crystal form obtained upon drying/heating” value [1]?
**A.** convert to Form B; also recorded: Form B or β

**Q.** Which “crystal form obtained upon drying/heating” value [1] does the source give for `CC(C)[C@H]1CC[C@H](C(=O)N[C@H](Cc2ccccc2)C(=O)O)CC1` [Form M, nateglinide] here?
**A.** Form L

**Q.** For `CC(C)[C@H]1CC[C@H](C(=O)N[C@H](Cc2ccccc2)C(=O)O)CC1` [acetonitrile solvate of Form Epsilon, nateglinide], which “crystal form obtained upon drying/heating” value [1] is on record?
**A.** Form B

**Q.** Which “crystal form obtained upon drying/heating” value [1] does the source give for `CC(C)[C@H]1CC[C@H](C(=O)N[C@H](Cc2ccccc2)C(=O)O)CC1` [Form G, nateglinide] here?
**A.** convert to Form B
